Laboratory results reported in US12590093B2, “Indolo[2′,3′:3,4]pyrido[2,1-b]quinazoline compound and use thereof” (INSTITUTE OF MEDICINAL BIOTECHNOLOGY CHINESE ACADEMY OF …, priority 2019, dated 2026).
“Also recorded” adds a separate entry of the source.

Legend:
ApoE^−/− mice [1] = experiment: Serum inflammatory factor levels in ApoE−/− mice (ELISA); assay type: in vivo; conditions: 5 mg/kg intragastrically, 12 weeks, HFD
Description: (§1) 6-week-old male C57/BL6 ApoE^−/− mice were fed on normal chaw diet for one week. The mice were randomly divided into three groups (control group, high-fat diet model group, and treatment group, 12 mice per group) according to the body weight. From 7-week-old, the high-fat diet model group and the treatment group were fed on a high fat diet (HFD) (0.15% cholesterol and 20% fat), and the control group was fed on normal chow diet. The treatment group (R3) mice were administered intragastrically with TR3 (5 mg/kg). The control group and the high-fat diet model group mice were intragastrically administered with sodium carboxymethylcellulose (CMC-Na) solution. After 12 weeks of administration, all mice were fasted overnight. The blood sample was taken from the retro-orbital plexus, collected in a EP tube, and then centrifuged for 15 min (2500 rpm). The centrifuged serum (upper layer) was transferred to new EP tubes (divided into two aliquots) and stored at −20° C. for further use. The mice were fixed, and the skin was cut open along the midline of the abdomen to the neck. The abdominal cavity was cut open to collect the fresh liver tissue. The Liver tissue was put into 3 freezing tubes, and then immediately put into liquid nitrogen for subsequent detection of liver lipid detection and extraction of RNA and protein. The thorax was cut open to expose the heart. The heart was perfused with 10 ml PBS, and then fixed by perfusion with 4% paraformaldehyde solution until the liver turned white. The fixed liver was taken out and placed in a six-well plate containing 4% paraformaldehyde solution for further fixation. The full-length aorta (from the ascending aorta to the common iliac arteries) was isolated and placed in a six-well plate containing 4% paraformaldehyde solution. The aorta was fixed in 4% paraformaldehyde solution overnight and then stored in 20% sucrose solution at 4° C.
The levels of IL-1β, IL-18, IL-6, TNF-α and IL-10 in the serum of ApoE^−/− mice were measured by using the corresponding ELISA kits (Nanjing Sen Bei Jia Biotechnology Co., Ltd., Nanjing, China). Standard dilution and addition: the standard was diluted by gradient, and 10 wells on the coated ELISA plate were set for standard addition. Sample addition: blank wells and sample wells were set separately. The sample wells of the coated ELISA plates were first added with 40 μL sample diluent, and then added 10 μL sample (the final dilution of the sample is 5-fold). […] Assay detection: the absorbance at 450 nm of each well was read with the absorbance at 450 nm of the blank well as zero, and this process was performed within 15 min after the stop solution was added.

LXRβ = biological target: T1, LXRβ (Homo sapiens, UniProt P55055); experiment: Nuclear receptor reporter gene transient transfection (pBIND-hLXRs-LBD) in HepG2 cells, LXRβ; assay type: cell-based
T1 construct: expressed in transfected cells; host or cells: HepG2
T1 sequence (P55055 222-460 limits assumed): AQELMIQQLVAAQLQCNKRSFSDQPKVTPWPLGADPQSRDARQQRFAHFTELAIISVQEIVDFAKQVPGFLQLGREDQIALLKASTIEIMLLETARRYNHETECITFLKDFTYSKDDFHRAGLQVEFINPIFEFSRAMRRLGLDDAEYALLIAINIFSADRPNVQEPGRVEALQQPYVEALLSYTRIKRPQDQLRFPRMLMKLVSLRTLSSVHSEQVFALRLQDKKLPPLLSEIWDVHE
Description: HepG2 cells in logarithmic growth phase were digested, seeded into the white/clear 96-well plate at a density of 5×10^4 cells/well/100 μL until the cells grew to about 90% confluence and in good condition. 0.5 μL liposome (Lipofectamine® 2000) diluted with blank medium to 25 μL per well and incubated at room temperature for 5 min. The corresponding plasmids DNA (nuclear receptor plasmid:Gal4=1:10) were diluted in blank DMEM medium to 25 μL/well (mixing of two plasmids), then mixed evenly with the diluted liposome, and incubated for 20 min at 37° C. The DNA-liposome complex (50 μL per well) was added with the DMEM complete medium (100 μL per well) and mixed thoroughly to obtain a DNA-liposome complex cell culture. The cell medium was discarded, and replaced with the DNA-liposome complex cell culture (150 μL/well) (37° C., 5% CO2). After 6 h, the DNA-liposome complex cell culture medium was discarded, and 200 μL serum-free DMEM medium containing the compound at an appropriate concentration was added to each test well, and cultured for 18-24 h. The cell Luciferase activity was measured by the method as described in the Luciferase Assay System.

ApoE^−/− mice [2] = experiment: Atherosclerosis model in ApoE−/− mice on high-fat diet, Oil Red O staining of aorta; assay type: in vivo; conditions: 5 mg/kg intragastrically, 12 weeks, HFD, versus model group
Description: as §1, with “The heart was perfused with 10 ml PBS, and then fixed by perfusion with 4% paraformaldehyde solution until the liver turned white. The fixed liver was taken out and placed in a six-well plate containing 4% paraformaldehyde solution for further fixation. The full-length aorta (from the ascending aorta to the common iliac arteries) was isolated and placed in a six-well plate containing 4% paraformaldehyde solution. The aorta was fixed in 4% paraformaldehyde solution overnight and then stored in 20% sucrose solution at 4° C.” left out

ApoE^−/− mice [3] = experiment: Serum lipid levels in ApoE−/− mice; assay type: in vivo; conditions: 5 mg/kg intragastrically, 12 weeks, HFD, versus model group
Description: as §1
The plasma biochemical indices were measured by using commercially available kits (Biosino Bio-technology and Science Inc., China) and the automatic biochemical analyzer.

c1ccc2c(c1)CN1CCc3c([nH]c4ccccc34)C1=N2 [TR3, 5,7,8,13-tetrahydroindolo[2′,3′:3,4]pyrido[2,1-b]quinazoline]
level of IL-1β in mouse serum (ApoE^−/− mice [1]): decreased the levels of IL-1β, IL-18 and IL-6 significantly
level of IL-6 in mouse serum (ApoE^−/− mice [1]): decreased the levels of IL-1β, IL-18 and IL-6 significantly
level of IL-18 in mouse serum (ApoE^−/− mice [1]): decreased the levels of IL-1β, IL-18 and IL-6 significantly
level of TNF-α in mouse serum (ApoE^−/− mice [1]): decreased the levels of IL-1β, IL-18 and IL-6 significantly and the level of TNF-α slightly
LXRβ max (LXRβ; HepG2 cells, reporter gene, 18-24 h): 1.42
LXRβ agonist activity (LXRβ; result in words): showed agonist activity; also recorded: simultaneously activated PPARα/γ/δ and LXRα/β to a certain extent
atherosclerotic plaque area in the aorta (ApoE^−/− mice [2]): significantly reduced
level of LDL-C in serum (ApoE^−/− mice [3]): greatly decreased
level of TC in serum (ApoE^−/− mice [3]): greatly decreased
level of TG in serum (ApoE^−/− mice [3]): greatly decreased
